This is an account of results in patent publication US20050014847A1, “Ambroxol for the treatment of chronic nociceptive pain” (Boehringer Ingelheim International GmbH, priority 2003, published 2005).

In assay [1] the test system is Tetrodotoxin-sensitive currents (sodium channels). In kind it is cell-based, rat. Particulars: read-out: IC50 tetrodotoxin-sensitive currents; neuron cultures from posterior root ganglia of adult rats.
The target of assay [2] is T1, human GluR1/2 receptors (Homo sapiens, UniProt P42261+P42262).
T1 construct: expressed in transfected cells; host or cells: HEK 293
The assay is described as follows: Patch-Clamp inhibition of glutamate-induced membrane currents in HEK 293 cells. In kind it is cell-based. Particulars: HEK 293 cells expressing recombinant human GluR1/2, 1 mM glutamate for 1 s, holding potential −80 mV. As for the experimental part: Ionotropic glutamate receptors of the AMPA sub-type are also essential for the excitatory neurotransmission. […] HEK 293 cells which expressed functionally recombinant human GluR1/2 receptors were electrophysiologically investigated by the Patch-Clamp method ([…]). The administration of 1 mM glutamate (for 1 s at a holding potential of −80 mV) induced membrane currents which were inhibited by the joint administration of ambroxol.

T1 sequence (P42261 19-906): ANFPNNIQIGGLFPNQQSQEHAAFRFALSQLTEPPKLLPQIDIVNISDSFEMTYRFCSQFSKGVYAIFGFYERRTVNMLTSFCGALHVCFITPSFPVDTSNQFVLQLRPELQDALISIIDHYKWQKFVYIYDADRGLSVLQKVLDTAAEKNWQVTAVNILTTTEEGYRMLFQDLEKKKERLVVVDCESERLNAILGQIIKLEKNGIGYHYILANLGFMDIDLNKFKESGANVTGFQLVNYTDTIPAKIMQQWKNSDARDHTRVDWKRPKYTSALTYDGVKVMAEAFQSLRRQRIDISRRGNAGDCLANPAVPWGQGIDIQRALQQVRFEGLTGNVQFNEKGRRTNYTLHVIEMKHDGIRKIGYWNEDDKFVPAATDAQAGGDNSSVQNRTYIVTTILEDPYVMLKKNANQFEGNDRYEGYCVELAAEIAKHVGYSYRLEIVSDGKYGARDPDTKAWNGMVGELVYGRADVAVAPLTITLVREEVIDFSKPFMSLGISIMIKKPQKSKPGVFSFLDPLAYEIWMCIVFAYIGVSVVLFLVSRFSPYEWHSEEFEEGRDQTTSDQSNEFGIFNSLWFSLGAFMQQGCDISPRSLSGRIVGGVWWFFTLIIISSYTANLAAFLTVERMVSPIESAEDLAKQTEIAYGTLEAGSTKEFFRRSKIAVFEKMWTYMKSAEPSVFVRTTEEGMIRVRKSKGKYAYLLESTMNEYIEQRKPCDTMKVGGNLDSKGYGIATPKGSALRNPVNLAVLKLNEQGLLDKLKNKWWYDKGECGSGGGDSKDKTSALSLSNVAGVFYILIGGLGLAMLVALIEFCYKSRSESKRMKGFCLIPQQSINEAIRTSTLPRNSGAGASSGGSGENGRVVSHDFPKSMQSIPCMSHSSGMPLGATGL
T1 sequence (P42262 22-883 limits assumed): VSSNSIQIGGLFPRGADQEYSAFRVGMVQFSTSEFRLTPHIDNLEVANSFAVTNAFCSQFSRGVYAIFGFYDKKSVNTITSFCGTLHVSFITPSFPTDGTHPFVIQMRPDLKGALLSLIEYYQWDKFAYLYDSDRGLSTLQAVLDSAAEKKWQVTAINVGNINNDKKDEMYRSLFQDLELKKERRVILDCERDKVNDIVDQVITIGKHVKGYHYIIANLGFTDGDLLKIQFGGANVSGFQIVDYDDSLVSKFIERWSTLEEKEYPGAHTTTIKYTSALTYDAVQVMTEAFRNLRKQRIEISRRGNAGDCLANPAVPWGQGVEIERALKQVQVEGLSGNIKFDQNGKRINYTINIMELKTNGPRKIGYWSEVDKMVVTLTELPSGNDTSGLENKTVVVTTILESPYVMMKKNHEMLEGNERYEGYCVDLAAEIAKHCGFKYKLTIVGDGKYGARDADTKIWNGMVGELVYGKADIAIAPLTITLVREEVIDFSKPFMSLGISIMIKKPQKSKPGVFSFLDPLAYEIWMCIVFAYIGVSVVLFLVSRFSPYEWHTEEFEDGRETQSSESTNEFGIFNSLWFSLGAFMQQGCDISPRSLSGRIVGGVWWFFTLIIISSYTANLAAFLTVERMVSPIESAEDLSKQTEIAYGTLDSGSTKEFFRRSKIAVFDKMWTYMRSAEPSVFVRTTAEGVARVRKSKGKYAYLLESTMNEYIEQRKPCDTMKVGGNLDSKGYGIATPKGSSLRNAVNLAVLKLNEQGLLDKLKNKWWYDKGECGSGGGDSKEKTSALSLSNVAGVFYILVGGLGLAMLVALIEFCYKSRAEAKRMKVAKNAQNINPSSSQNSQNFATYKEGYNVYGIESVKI

`Nc1c(Br)cc(Br)cc1CN[C@H]1CC[C@H](O)CC1` [ambroxol, trans-4-(2-amino-3,5-dibromobenzylamino)cyclohexanol]: the IC50 in assay [1] was above 100 µM. Besides, in assay [2], the “concentrations inhibiting glutamate-induced membrane currents” value lay within 30 to 1000 µM.
